We go through 4 molecules from ChEMBL document CHEMBL1201862, “PubChem BioAssay data set” (2004).

What all share (assay): growth of human tumour cells (NCI), 48 h
Experiment [1] relates to MOLT-4.
For experiment [2], the system named is PC-3.
The subject of experiment [3] is HOP-62.
The subject of experiment [4] is NCI-H522.
Experiment [5] has as its system HCT-15.
In experiment [6] the test system is NCI/ADR-RES.
In experiment [7] the test system is SF-268.
Experiment [8] concerns OVCAR-5.
The test system of experiment [9] is SN12C.
Experiment [10] has as its system UO-31.
The test system of experiment [11] is UACC-62.
Experiment [12] concerns SK-MEL-28.
Experiment [13] has as its system A549.
The test system of experiment [14] is MDA-MB-435.
In experiment [15] the test system is DU-145.
Experiment [16] deals with SK-OV-3.
The test system of experiment [17] is SK-MEL-2.
For experiment [18], the system named is NCI-H460.
Experiment [19] deals with HOP-92.
The subject of experiment [20] is A498.

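The compound was tested at five concentrations on cells cultured in 96-well plates, with a 48-hour exposure period. GI50: concentration for 50% inhibition of growth.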 The source made the active and inactive calls. Rule as the data show it: active = GI50 up to about 1.1 µM and inactive = higher. Some results are limits rather than exact numbers.

Regarding `COC(=O)c1ccc(C)cc1C1CN=NC12Cc1cccc(C)c1C2=O` (stereo not given), the GI50 in experiment [1] was 19.6 µM (inactive); in experiment [2] it was 22.5 µM (inactive); in experiment [3] it was 71.3 µM (inactive); in [4] it was 28.1 µM (inactive); in experiment [5], 47.2 µM; in experiment [6] it was 25.4 µM (inactive). Further, the GI50 in [7] was 57.1 µM (inactive); in experiment [8], > 100 µM (inactive); in [9] it was 52.7 µM (inactive); in experiment [10] it was 26.7 µM (inactive); in experiment [11] it was 21 µM (inactive); in experiment [12], 30.7 µM (inactive). Moreover, the GI50 in experiment [13] is 41.1 µM (inactive); in experiment [14] it was 18.9 µM (inactive); in [15], 65.2 µM (inactive); in [16], 90.4 µM (inactive); in experiment [17] it was 23.8 µM (inactive); in experiment [18], 63 µM (inactive). In addition, the GI50 in [19] is 36.9 µM (inactive).

On to `CCOc1cc(CCNC)c2c(ccc3ccc(OC)c(O)c32)c1OC`, for which the GI50 in [1] is 5.82 µM (inactive); in [2] it was 13.2 µM (inactive); in experiment [3] it was 20.3 µM (inactive); in experiment [4], 5.14 µM (inactive); in experiment [5], 17.5 µM; in experiment [6], 19.2 µM (inactive). The GI50 in experiment [7] is 18 µM (inactive); in [8], 14.5 µM (inactive); in [9] it was 16.1 µM (inactive); in [10] it was 15.6 µM (inactive); in experiment [11] it was 15.8 µM (inactive); in [12], 17.9 µM (inactive). Also, the GI50 in experiment [13] is 19.3 µM (inactive); in [14] it was 12.6 µM (inactive); in experiment [15], 15.2 µM (inactive); in experiment [16], 14.4 µM (inactive); in experiment [17] it was 14.2 µM (inactive); in experiment [18], 14.1 µM (inactive). In addition, the GI50 in experiment [19] was 12.1 µM (inactive).

For the molecule `CO[C@]1(c2ccc([N+](=O)[O-])cc2)Oc2ccccc2C(=O)[C@@]1(Nc1ccc(C=O)cc1)OC`, the GI50 in [1] was > 10 µM (inactive); in experiment [2] it was > 10 µM (inactive); in experiment [3], > 10 µM (inactive); in [5] it was above 10 µM; in experiment [6] it was > 10 µM (inactive); in experiment [7] it was > 10 µM (inactive). Moreover, the GI50 in experiment [8], in experiment [9], in [10], in [11], in experiment [12] and in experiment [13] was > 10 µM (inactive) each time. Also, the GI50 in experiment [14], in experiment [15], in experiment [16], in experiment [17], in experiment [18] and in experiment [20] was > 10 µM (inactive) throughout.

Take `CCC(CS(=O)(=O)O)[N+](=O)[O-]` (stereo not given): the GI50 in [1] was > 100 µM (inactive); in experiment [2] it was > 100 µM (inactive); in experiment [3] it was > 100 µM (inactive); in experiment [4] it was > 100 µM (inactive); in experiment [5] it was above 100 µM; in experiment [6] it was > 100 µM (inactive). Besides, the GI50 in experiment [7], in experiment [8], in [9], in experiment [10], in [11] and in [12] was > 100 µM (inactive) in each case. Besides, the GI50 in experiment [13], in [14], in [15], in experiment [16], in experiment [17] and in experiment [18] was > 100 µM (inactive) each time. Besides, the GI50 in [20] was > 100 µM (inactive).
